T/C data for 17 compounds are collected here from PubChem BioAssay AID248 (DTP/NCI, 2004).

Each structure is given as a SMILES string. Several values for one entry are separate records, joined by “and”; a condition that tells them apart may be missing. Equal values may be shown once. Inconclusive results and toxic doses are left out.

The test system of the experiment is L1210 leukemia ip in BDF1 mice, survival T/C. Kind of experiment: NCI In Vivo Anticancer Drug Screen. Data for tumor model L1210 Leukemia (intraperitoneal) in B6D2F1 (BDF1) mice. Particulars: endpoint: mean survival time, higher = longer survival. The procedure, abridged:
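Tumor cells were implanted, animals were treated, and survival was followed. The result divides the treated measurement by the vehicle-control measurement.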

Setting [1] is: dose: 100.0 mg/kg/injection, schedule: Q04DX002 (ip), vehicle: Klucel (hydroxypropylcellulose) (HPC).
Setting [2] is: dose: 200.0 mg/kg/injection, schedule: Q04DX002 (ip), vehicle: Klucel (hydroxypropylcellulose) (HPC).
The mark [3] stands for this setting: dose: 100.0 mg/kg/injection, schedule: Q01DX009 (ip), vehicle: saline with Tween-80.
Setting [4] is: dose: 200.0 mg/kg/injection, schedule: Q01DX009 (ip), vehicle: saline with Tween-80.
Setting [5] is: dose: 200.0 mg/kg/injection, schedule: Q04DX002 (ip), vehicle: saline with Tween-80.
Where [6] appears, read: dose: 400.0 mg/kg/injection, schedule: Q01DX009 (ip), vehicle: saline with Tween-80.
Setting [7] is: dose: 50.0 mg/kg/injection, schedule: Q01DX009 (ip), vehicle: saline with Tween-80.
Where [8] appears, read: dose: 75.0 mg/kg/injection, schedule: Q01DX001 (ip), vehicle: saline.
Setting [9] is: dose: 12.5 mg/kg/injection, schedule: Q01DX009 (ip), vehicle: saline with Tween-80.

As for `CC1CCOP(=O)(Sc2ccccc2)O1` (stereo not given), the T/C (dose: 75.0 mg/kg/injection, schedule: Q04DX002 (ip), vehicle: Klucel (hydroxypropylcellulose) (HPC)) is 102 % of control; the T/C under setting [1] was 106 % of control; the T/C (dose: 150.0 mg/kg/injection, schedule: Q04DX002 (ip), vehicle: Klucel (hydroxypropylcellulose) (HPC)) was 113 % of control; the T/C under setting [2] was 109 % of control.

For `CNC(=O)c1cc(/C=C/c2c[nH]c3ccccc23)c[n+](C)c1`, the T/C is 102 % of control (dose: 100.0 mg/kg/injection, schedule: Q01DX001 (ip), vehicle: other); 100 % of control (dose: 200.0 mg/kg/injection, schedule: Q01DX001 (ip), vehicle: other); 94 % of control (dose: 400.0 mg/kg/injection, schedule: Q01DX001 (ip), vehicle: other).

As to `CC(=O)C12OC(C)(C)OC1CC1C3CCC4=CC(=O)CCC4(C)C3CCC12C` (stereo not given), the T/C was 108 % of control (dose: 12.5 mg/kg/injection, schedule: Q04DX002 (ip), vehicle: Klucel (hydroxypropylcellulose) (HPC)); 108 % of control (dose: 25.0 mg/kg/injection, schedule: Q04DX002 (ip), vehicle: Klucel (hydroxypropylcellulose) (HPC)); 94 % of control (dose: 50.0 mg/kg/injection, schedule: Q04DX002 (ip), vehicle: Klucel (hydroxypropylcellulose) (HPC)).

With `CCOC(=O)C(CCC(C)C)C(C)=O` (stereo not given), the T/C was 97 % of control under setting [3]; 101 % of control (dose: 100.0 mg/kg/injection, schedule: Q04DX002 (ip), vehicle: saline with Tween-80); 112 % of control under setting [4]; 97 % of control under setting [5]; 104 % of control under setting [6]; 101 % of control (dose: 400.0 mg/kg/injection, schedule: Q04DX002 (ip), vehicle: saline with Tween-80).

In the case of `CN=Cc1ccccc1O.CN=Cc1ccccc1O.[Cu+2]`, the T/C reads like this: (dose: 4.68 mg/kg/injection, schedule: Q01DX009 (ip), vehicle: acetone) 94 % of control; (dose: 9.37 mg/kg/injection, schedule: Q01DX009 (ip), vehicle: acetone) 92 % of control; (dose: 18.75 mg/kg/injection, schedule: Q01DX009 (ip), vehicle: acetone) 90 % of control; (dose: 18.75 mg/kg/injection, schedule: Q04DX003 (ip), vehicle: acetone) 95 % of control; (dose: 37.5 mg/kg/injection, schedule: Q04DX003 (ip), vehicle: acetone) 92 % of control; (dose: 75.0 mg/kg/injection, schedule: Q01DX001 (ip), vehicle: acetone) 92 % of control.

As for `Cc1ccc(NC(=S)N2CCC(CCCC3CCN(C(=S)Nc4ccc(C)cc4C)CC3)CC2)c(C)c1`, the T/C was 98 % of control (dose: 50.0 mg/kg/injection, schedule: Q01DX009 (ip), vehicle: Klucel (hydroxypropylcellulose) (HPC)); 107 % of control (dose: 100.0 mg/kg/injection, schedule: Q01DX009 (ip), vehicle: Klucel (hydroxypropylcellulose) (HPC)); 97 % of control (dose: 100.0 mg/kg/injection, schedule: Q04DX003 (ip), vehicle: Klucel (hydroxypropylcellulose) (HPC)); 95 % of control (dose: 200.0 mg/kg/injection, schedule: Q01DX009 (ip), vehicle: Klucel (hydroxypropylcellulose) (HPC)); 95 % of control (dose: 200.0 mg/kg/injection, schedule: Q04DX003 (ip), vehicle: Klucel (hydroxypropylcellulose) (HPC)).

Consider `O=C(CNC(=O)Nc1ccc(Cl)c(Cl)c1)N/N=C/c1ccccc1F`, for which the T/C reads like this: under setting [7], 93 % of control; under setting [3], 89 % of control; under setting [4], 89 % of control.

For the compound `CC(C)(F)C(Br)C(=O)O` (stereo not given), the T/C under setting [5] is 93 % of control.

`C=C1C(=O)CCC1C(=O)O` (stereo not given): the T/C by setting is: (dose: 100.0 mg/kg/injection, schedule: Q01DX009 (ip), vehicle: saline) 101 % of control; (dose: 200.0 mg/kg/injection, schedule: Q01DX009 (ip), vehicle: saline) 110 % of control; (dose: 400.0 mg/kg/injection, schedule: Q01DX009 (ip), vehicle: saline) 112 % of control.

With `CCOC(=O)CNC(=O)OCCOc1ccccc1Cl`, the T/C is, setting by setting: under setting [3], 94 % of control; under setting [4], 98 % of control; under setting [6], 100 % of control.

With `CC(O)c1nc2ccccc2n1C` (stereo not given), the T/C was 118 % of control (dose: 333.0 mg/kg/injection, schedule: Q01DX Z (ip), vehicle: saline) and 98 % of control (dose: 500.0 mg/kg/injection, schedule: Q01DX Z (ip), vehicle: saline).

As for `O=S(=O)(OCCOS(=O)(=O)c1ccccc1)c1ccccc1`, the T/C runs as follows: under setting [1], 115 % of control; under setting [2], 107 % of control; (dose: 400.0 mg/kg/injection, schedule: Q04DX002 (ip), vehicle: Klucel (hydroxypropylcellulose) (HPC)) 100 % of control.

Regarding `CN(/N=C/c1ccccc1)C(=N)N`, the T/C (dose: 5.0 mg/kg/injection, schedule: Q01DX009 (ip), vehicle: saline) is 106 % of control; the T/C (dose: 10.0 mg/kg/injection, schedule: Q01DX001 (ip), vehicle: saline) is 98 % of control; the T/C (dose: 10.0 mg/kg/injection, schedule: Q01DX009 (ip), vehicle: saline) was 93 % of control; the T/C (dose: 10.0 mg/kg/injection, schedule: Q04DX003 (ip), vehicle: saline) was 101 % of control; the T/C (dose: 20.0 mg/kg/injection, schedule: Q01DX001 (ip), vehicle: saline) was 101 % of control; the T/C (dose: 20.0 mg/kg/injection, schedule: Q01DX009 (ip), vehicle: saline) was 104 % of control. The T/C reads like this: (dose: 20.0 mg/kg/injection, schedule: Q04DX003 (ip), vehicle: saline) 97 % of control; (dose: 40.0 mg/kg/injection, schedule: Q01DX001 (ip), vehicle: saline) 93 % of control; (dose: 40.0 mg/kg/injection, schedule: Q04DX003 (ip), vehicle: saline) 103 % of control; (dose: 62.5 mg/kg/injection, schedule: Q04DX003 (ip), vehicle: saline) 117 % of control; under setting [8], 100 % of control.

Turning to `CCC(/C=C1\[Se]c2ccc(C)cc2N1CC)=C\c1[se]c2ccc(C)cc2[n+]1CC`, the T/C reads like this: (dose: 2.0 mg/kg/injection, schedule: Q01DX001 (ip), vehicle: other) 103 % of control; (dose: 4.0 mg/kg/injection, schedule: Q01DX001 (ip), vehicle: other) 101 % of control.

Consider `COc1ccc(Cc2c3cc(OC)c(OC)cc3cc[n+]2C)cc1OC`, for which the T/C reads like this: under setting [9], 103 % of control; (dose: 25.0 mg/kg/injection, schedule: Q01DX009 (ip), vehicle: saline with Tween-80) 100 % of control; under setting [7], 105 % of control and 106 % of control; (dose: 100.0 mg/kg/injection, schedule: Q04DX003 (ip), vehicle: saline with Tween-80) 98 % of control; (dose: 200.0 mg/kg/injection, schedule: Q04DX003 (ip), vehicle: saline with Tween-80) 95 % of control.

Consider `CC(=O)Nc1ccc2c(Nc3ccc(NS(C)(=O)=O)cc3)c3ccccc3nc2c1`, for which the T/C is 151 % of control (dose: 0.8 mg/kg/injection, schedule: Q01DX009 (ip), vehicle: Klucel (hydroxypropylcellulose) (HPC)); 156 % of control (dose: 1.5 mg/kg/injection, schedule: Q01DX009 (sc), vehicle: saline); 159 % of control (dose: 1.6 mg/kg/injection, schedule: Q01DX009 (ip), vehicle: Klucel (hydroxypropylcellulose) (HPC)); 180 % of control (dose: 3.1 mg/kg/injection, schedule: Q01DX009 (ip), vehicle: Klucel (hydroxypropylcellulose) (HPC)); 228 % of control (dose: 5.4 mg/kg/injection, schedule: Q01DX009 (ip), vehicle: saline with Tween-80); 281 % of control (dose: 6.25 mg/kg/injection, schedule: Q01DX009 (ip), vehicle: Klucel (hydroxypropylcellulose) (HPC)). The T/C by setting is: (dose: 8.0 mg/kg/injection, schedule: Q01DX009 (ip), vehicle: saline with Tween-80) 176 % of control; (dose: 12.0 mg/kg/injection, schedule: Q01DX009 (ip), vehicle: saline with Tween-80) 171 % of control; under setting [9], 165 % of control; (dose: 12.5 mg/kg/injection, schedule: Q01DX009 (sc), vehicle: saline) 152 % of control; (dose: 18.0 mg/kg/injection, schedule: Q01DX009 (ip), vehicle: saline with Tween-80) 93 % of control; (dose: 25.0 mg/kg/injection, schedule: Q01DX009 (ip), vehicle: Klucel (hydroxypropylcellulose) (HPC)) 93 % of control.

Take `NC(CCCNc1nc(O)c(-c2ccccc2)c(=O)[nH]1)C(=O)O` (stereo not given): the T/C is, setting by setting: under setting [8], 104 % of control; (dose: 150.0 mg/kg/injection, schedule: Q01DX001 (ip), vehicle: saline) 102 % of control; (dose: 300.0 mg/kg/injection, schedule: Q01DX001 (ip), vehicle: saline) 102 % of control.
